Laboratory results taken from patent publication US9409884B2 (Rigel Pharmaceuticals, Inc., priority 2012, dated 2016).

Target: AMPK
Test: AMPK activation, enzyme-linked immunosorbent assay
Type: biochemical
Conditions: Table 13, compounds of Table 6
Outline: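 AMPK activation by test compounds was measured by enzyme-linked immunosorbent assay.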

EC50, < 100 nM:
COc1ccc(CN2CCC(NC(=O)c3cc4cc(C(=O)N5CCN(Cc6ccc(S(C)(=O)=O)c(C)c6)CC5)ccc4o3)CC2)cc1F [Compound 6-130, N-(1-(3-fluoro-4-methoxybenzyl)piperidin-4-yl)-5-(4-(3-methyl-4-(methylsulfonyl)benzyl)piperazine-1-carbonyl) benzofuran-2-carboxamide]
COc1ccc(CN2CCC(NC(=O)c3cc4cc(C(=O)N5CCN(Cc6ccc(S(=O)(=O)C7CC7)cc6)CC5)ccc4o3)CC2)cc1F [Compound 6-131, 5-(4-(4-(cyclopropylsulfonyl)benzyl)piperazine-1-carbonyl)-N-(1-(3-fluoro-4-methoxybenzyl)piperidin-4-yl)benzofuran-2-carboxamide]
COc1ccc(CN2CCC(NC(=O)c3cc4cc(C(=O)N5CCN(Cc6ccc(S(C)(=O)=O)c(C(F)(F)F)c6)CC5)ccc4o3)CC2)cc1F [Compound 6-132, N-(1-(3-fluoro-4-methoxybenzyl)piperidin-4-yl)-5-(4-(4-(methylsulfonyl)-3-(trifluoromethyl)benzyl)piperazine-1-carbonyl) benzofuran-2-carboxamide]
COc1ccc(CN2CCC(NC(=O)c3cc4cc(C(=O)N5CCN(Cc6ccc(S(C)(=O)=O)c(Cl)c6)CC5)ccc4o3)CC2)cc1F [Compound 6-133, 5-(4-(3-chloro-4-(methylsulfonyl)benzyl)piperazine-1-carbonyl)-N-(1-(3-fluoro-4-methoxybenzyl)piperidin-4-yl)benzofuran-2-carboxamide]
COc1ccc(CN2CCC(NC(=O)c3cc4cc(C(=O)N5CCN(Cc6ccc(S(=O)(=O)C(F)(F)F)cc6)CC5)ccc4o3)CC2)cc1F [Compound 6-134, N-(1-(3-fluoro-4-methoxybenzyl)piperidin-4-yl)-5-(4-(4-(trifluoromethylsulfonyl)benzyl)piperazine-1-carbonyl)benzofuran-2-carboxamide]
CS(=O)(=O)c1ccc(OC2CCN(C(=O)c3ccc4oc(C(=O)NC5CCN(Cc6ccc(OC(F)(F)F)cc6)CC5)cc4c3)CC2)cc1 [Compound 6-135, 5-(4-(4-(methylsulfonyl)phenoxy)piperidine-1-carbonyl)-N-(1-(4-(trifluoromethoxy)benzyl)piperidin-4-yl)benzofuran-2-carboxamide]
O=C(NC1CCN(Cc2ccc(OC(F)(F)F)cc2)CC1)c1cc2cc(C(=O)N3CCC(Oc4ccc(S(=O)(=O)C(F)(F)F)cc4)CC3)ccc2o1 [Compound 6-136, N-(1-(4-(trifluoromethoxy)benzyl)piperidin-4-yl)-5-(4-(4-(trifluoromethylsulfonyl)phenoxy)piperidine-1-carbonyl)benzofuran-2-carboxamide]
COc1ccc(CN2CCC(NC(=O)c3cc4cc(C(=O)N5CCC(Oc6ccc(S(=O)(=O)C(F)(F)F)cc6)CC5)ccc4o3)CC2)cc1F [Compound 6-137, N-(1-(3-fluoro-4-methoxybenzyl)piperidin-4-yl)-5-(4-(4-(trifluoromethylsulfonyl)phenoxy)piperidine-1-carbonyl)benzofuran-2-carboxamide]
CS(=O)(=O)c1ccc(CN2CCN(C(=O)c3ccc4oc(C(=O)NC5CCN(Cc6ccc(OC(F)(F)F)c(F)c6)CC5)cc4c3)CC2)cc1 [Compound 6-138, N-(1-(3-fluoro-4-(trifluoromethoxy)benzyl)piperidin-4-yl)-5-(4-(4-(methylsulfonyl)benzyl)piperazine-1-carbonyl) benzofuran-2-carboxamide]
O=C(NC1CCN(Cc2ccc(OC(F)(F)F)c(F)c2)CC1)c1cc2cc(C(=O)N3CCN(c4cccc(C(F)(F)F)c4)CC3)ccc2o1 [Compound 6-139, N-(1-(3-fluoro-4-(trifluoromethoxy)benzyl)piperidin-4-yl)-5-(4-(3-(trifluoromethyl)phenyl)piperazine-1-carbonyl) benzofuran-2-carboxamide]
O=C(NC1CCN(Cc2ccc(OC(F)(F)F)cc2)CC1)c1cc2cc(C(=O)N3CCN(c4cccc(C(F)(F)F)c4)CC3)ccc2o1 [Compound 6-140, N-(1-(4-(trifluoromethoxy)benzyl)piperidin-4-yl)-5-(4-(3-(trifluoromethyl)phenyl)piperazine-1-carbonyl) benzofuran-2-carboxamide]
COc1ccc(CN2CCC(NC(=O)c3cc4cc(C(=O)N5CCN(Cc6cccc(S(C)(=O)=O)c6)CC5)ccc4o3)CC2)cc1F [Compound 6-141, N-(1-(3-fluoro-4-methoxybenzyl)piperidin-4-yl)-5-(4-(3-(methylsulfonyl)benzyl)piperazine-1-carbonyl) benzofuran-2-carboxamide]
COc1ccc(CN2CCC(NC(=O)c3cc4cc(C(=O)N5CCN(Cc6cccc(S(C)(=O)=O)c6)CC5)ccc4n3C)CC2)cc1F [Compound 6-142, N-(1-(3-fluoro-4-methoxybenzyl)piperidin-4-yl)-1-methyl-5-(4-(3-(methylsulfonyl)benzyl)piperazine-1-carbonyl)-1H-indole-2-carboxamide]
COc1ccc(CN2CCC(NC(=O)c3cc4cc(C(=O)N5CCN(Cc6ccc(Br)c(S(C)(=O)=O)c6)CC5)ccc4o3)CC2)cc1F [Compound 6-143, 5-(4-(4-bromo-3-(methylsulfonyl)benzyl)piperazine-1-carbonyl)-N-(1-(3-fluoro-4-methoxybenzyl)piperidin-4-yl)benzofuran-2-carboxamide]
CS(=O)(=O)c1ccc(CN2CCN(C(=O)c3ccc4oc(C(=O)NC5CCN(Cc6ccc(C(F)(F)F)cc6)CC5)cc4c3)CC2)cc1 [Compound 6-144, 5-(4-(4-(methylsulfonyl)benzyl)piperazine-1-carbonyl)-N-(1-(4-(trifluoromethyl)benzyl)piperidin-4-yl)benzofuran-2-carboxamide]
CS(=O)(=O)c1ccc(CN2CCN(C(=O)c3ccc4oc(C(=O)NC5CCN(Cc6ccc(C#N)c(F)c6)CC5)cc4c3)CC2)cc1 [Compound 6-145, N-(1-(4-cyano-3-fluorobenzyl)piperidin-4-yl)-5-(4-(4-(methylsulfonyl)benzyl)piperazine-1-carbonyl) benzofuran-2-carboxamide]
CS(=O)(=O)c1ccc(CN2CCN(C(=O)c3ccc4oc(C(=O)NC5CCN(Cc6cccc(OC(F)(F)F)c6)CC5)cc4c3)CC2)cc1 [Compound 6-146, 5-(4-(4-(methylsulfonyl)benzyl)piperazine-1-carbonyl)-N-(1-(3-(trifluoromethoxy)benzyl)piperidin-4-yl)benzofuran-2-carboxamide]
CS(=O)(=O)c1ccc(CN2CCN(C(=O)c3ccc4oc(C(=O)NC5CCN(Cc6cccc(C(F)(F)F)c6)CC5)cc4c3)CC2)cc1 [Compound 6-147, 5-(4-(4-(methylsulfonyl)benzyl)piperazine-1-carbonyl)-N-(1-(3-(trifluoromethyl)benzyl)piperidin-4-yl)benzofuran-2-carboxamide]
CS(=O)(=O)c1ccc(CN2CCN(C(=O)c3ccc4oc(C(=O)NC5CCN(Cc6ccc(-n7cccn7)cc6)CC5)cc4c3)CC2)cc1 [Compound 6-148, N-(1-(4-(1H-pyrazol-1-yl)benzyl)piperidin-4-yl)-5-(4-(4-(methylsulfonyl)benzyl)piperazine-1-carbonyl) benzofuran-2-carboxamide]
